Series [1] concerns Mycobacterium intracellulare. Description: Antimycobacterial activity against Mycobacterium intracellulare by CLSI method. Format: functional.
In another series the test system is Mycobacterium xenopi. Description: Antimycobacterial activity against Mycobacterium xenopi by CLSI method. The format is functional.
The subject of the next series is Mycobacteroides chelonae. Description: Antimycobacterial activity against Mycobacterium chelonae by CLSI method. Format: functional.
Series [2] is described as follows: Cytotoxicity against human MRC5 SV2 cells measured after 72 hrs by resazurin based fluorescence assay. Format: toxicity, cell-based.
Series [3] relates to Mycobacterium tuberculosis. Description: Antimycobacterial activity against Mycobacterium tuberculosis H37Ra measured after 7 days by alamar blue assay. The format is functional. The note with it: 168 h. (In general: Alamar Blue is a resazurin reagent that responds to reducing activity.)
Series [4] relates to Mycolicibacterium smegmatis. Description: Antimycobacterial activity against Mycobacterium smegmatis by CLSI method. Format: functional.
Series [5] is described as follows: Oral bioavailability in Sprague-Dawley rat. The format is ADME, organism-based. The note with it: in vivo.
The subject of series [6] is Mycolicibacterium smegmatis. The series is described as follows: Antimycobacterial activity against Mycobacterium smegmatis MC2 155 after 24 hrs by broth dilution assay. Format: functional. The following applies: str. MC2 155, 24 h. A general note: Broth dilution looks for growth in wells or tubes with falling amounts of substance.
The subject of series [7] is Mycolicibacterium smegmatis. Description: Bactericidal activity against Mycobacterium smegmatis MC2 155 assessed as log reduction in bacterial colonies up to 8 times MIC measured after 24 hrs by time-kill assay. The format is functional, str. MC2 155.

Molecules are shown by their SMILES. Converted amounts (≈) assume the structure as drawn.

One may read the MIC as the lowest concentration found to suppress growth. The low end stands for greater potency, the high end for weaker potency. As usually defined, the CC50 is the concentration giving 50% cytotoxicity. The low end stands for harm at low concentration, the high end for better tolerance by the cells. What is called bioavailability is dose-corrected exposure relative to a reference, in per cent. Read a low bioavailability as little systemic uptake. One may read the MIC90 as the lowest concentration that inhibits either 90% of growth or 90% of the strains tested, depending on the study. High values mean lower susceptibility, low ones higher susceptibility.

Turning to `COc1c(O)cc2oc3cc(O)c(CC=C(C)C)c(O)c3c(=O)c2c1CC=C(C)C` [MANGOSTIN], the MIC in series [1] was 3.7 µM (≈ 1.52 µg/mL); in the series with Mycobacterium xenopi, 3.7 µM (≈ 1.52 µg/mL); in the series with Mycobacteroides chelonae, 3.7 µM (≈ 1.52 µg/mL); in series [3], 6.25 µg/mL (≈ 15.2 µM); in [4] it was 3.7 µM (≈ 1.52 µg/mL). For the same compound, in series [2], it took 7.5 µM to reach half-maximal cytotoxicity (CC50 at 72 h).

With `CO[C@H]1/C=C/O[C@@]2(C)Oc3c(C)c(O)c4c(c3C2=O)C2=NC3(CCN(CC(C)C)CC3)NC2=C(NC(=O)/C(C)=C\C=C\[C@H](C)[C@H](O)[C@@H](C)[C@@H](O)[C@@H](C)[C@H](OC(C)=O)[C@@H]1C)C4=O` [RIFABUTIN], the bioavailability in [5] was found to be 20%.

`NNC(=O)c1ccncc1` [ISONIAZID] returned an MIC90 in [6] of 15 µM (≈ 2.06 µg/mL). Moreover, the Activity in series [7] stood at 1.2.

(Values after ChEMBL document CHEMBL3872220, “Amphiphilic xanthones as a potent chemical entity of anti-mycobacterial agents with membrane-targeting properties” (Eur J Med Chem, 2016).)
